Laboratory results: ChEMBL document CHEMBL1201862, “PubChem BioAssay data set” (2004)
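Five compound concentrations were applied to cells in 96-well plates for 48 hours; endpoints were derived by simple linear interpolation of the resulting dose-response curve. GI50 = concentration required for 50% inhibition of growth.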 Active and inactive are the calls of the source. Cut-off read from the data, not from the text of the source: active = GI50 up to about 1.1 µM and inactive = higher.

Experiments:
Test in all cases: DTP human tumour cell line panel, 48 h
NCI-H522 = tested on: NCI-H522
A549 = tested on: A549
HL-60 = tested on: HL-60
OVCAR-4 = tested on: OVCAR-4
HCT-15 = tested on: HCT-15
SNB-19 = tested on: SNB-19
HCC 2998 = tested on: HCC 2998
MOLT-4 = tested on: MOLT-4
M14 = tested on: M14
Malme-3M = tested on: Malme-3M
ACHN = tested on: ACHN
UACC-257 = tested on: UACC-257
U-251 = tested on: U-251
OVCAR-8 = tested on: OVCAR-8
COLO 205 = tested on: COLO 205
SR = tested on: SR
SNB-75 = tested on: SNB-75
A498 = tested on: A498

COc1ccc2c(c1)[n+]([O-])c(/C(C)=N/NC(=O)c1ccccc1O)c(C)[n+]2[O-]
GI50 (NCI-H522): > 100 µM (inactive)
GI50 (A549): > 100 µM (inactive)
GI50 (HL-60): > 100 µM (inactive)
GI50 (OVCAR-4): > 100 µM (inactive)
GI50 (HCT-15): > 100 µM
GI50 (SNB-19): > 100 µM (inactive)
GI50 (HCC 2998): > 100 µM (inactive)
GI50 (MOLT-4): > 100 µM (inactive)
GI50 (M14): > 100 µM (inactive)
GI50 (Malme-3M): > 100 µM (inactive)
GI50 (ACHN): > 100 µM (inactive)
GI50 (UACC-257): > 100 µM (inactive)
GI50 (U-251): > 100 µM (inactive)
GI50 (OVCAR-8): 97.9 µM (inactive)

O=C(c1ccccc1)c1nc2ccc(Cl)cc2c2c1Cc1ccccc1-2
GI50 (NCI-H522): > 100 µM (inactive)
GI50 (A549): > 100 µM (inactive)
GI50 (OVCAR-4): > 100 µM (inactive)
GI50 (HCT-15): > 100 µM
GI50 (SNB-19): > 100 µM (inactive)
GI50 (HCC 2998): > 100 µM (inactive)
GI50 (MOLT-4): > 100 µM (inactive)
GI50 (M14): > 100 µM (inactive)
GI50 (COLO 205): > 100 µM (inactive)
GI50 (SR): > 100 µM (inactive)
GI50 (Malme-3M): > 100 µM (inactive)
GI50 (SNB-75): 46.5 µM (inactive)
GI50 (ACHN): > 100 µM (inactive)
GI50 (UACC-257): > 100 µM (inactive)
GI50 (U-251): > 100 µM (inactive)
GI50 (OVCAR-8): > 100 µM (inactive)

C=C1C(=O)OC2C/C(C)=C/CC/C(C)=C/CCC3(COC(C)=O)OC3CC12 (centres undefined)
GI50 (NCI-H522): 1.51 µM (inactive)
GI50 (A549): 16.4 µM (inactive)
GI50 (HL-60): 2.21 µM (inactive)
GI50 (OVCAR-4): 26.7 µM (inactive)
GI50 (HCT-15): 2.81 µM
GI50 (SNB-19): 16.5 µM (inactive)
GI50 (HCC 2998): 8.85 µM (inactive)
GI50 (MOLT-4): 4.42 µM (inactive)
GI50 (M14): 6.15 µM (inactive)
GI50 (COLO 205): 4.55 µM (inactive)
GI50 (Malme-3M): 12.9 µM (inactive)
GI50 (SNB-75): 11.6 µM (inactive)
GI50 (ACHN): 14.1 µM (inactive)
GI50 (UACC-257): 15.4 µM (inactive)
GI50 (U-251): 11.2 µM (inactive)
GI50 (A498): 13.8 µM (inactive)
GI50 (OVCAR-8): 6.52 µM (inactive)

Cc1cc(Cl)ccc1NC(=O)CCCC(=O)C1C/C(=N/O)CC/C1=N\O (centres undefined)
GI50 (NCI-H522): > 100 µM (inactive)
GI50 (A549): > 100 µM (inactive)
GI50 (HL-60): > 100 µM (inactive)
GI50 (OVCAR-4): > 100 µM (inactive)
GI50 (HCT-15): > 100 µM
GI50 (SNB-19): > 100 µM (inactive)
GI50 (HCC 2998): > 100 µM (inactive)
GI50 (MOLT-4): > 100 µM (inactive)
GI50 (M14): > 100 µM (inactive)
GI50 (COLO 205): > 100 µM (inactive)
GI50 (Malme-3M): > 100 µM (inactive)
GI50 (SNB-75): > 100 µM (inactive)
GI50 (ACHN): > 100 µM (inactive)
GI50 (UACC-257): > 100 µM (inactive)
GI50 (U-251): > 100 µM (inactive)
GI50 (A498): > 100 µM (inactive)
GI50 (OVCAR-8): > 100 µM (inactive)

COc1ccc2nc3cc(Cl)ccc3c(NCCC[N+](C)(C)CCCCCCCCCCCCCCCC[N+](C)(C)CCCNc3c4ccc(Cl)cc4nc4ccc(OC)cc34)c2c1
GI50 (NCI-H522): 2.81 µM (inactive)
GI50 (A549): 3.12 µM (inactive)
GI50 (HL-60): 1.69 µM (inactive)
GI50 (OVCAR-4): 2.44 µM (inactive)
GI50 (HCT-15): 5.85 µM
GI50 (SNB-19): 2.69 µM (inactive)
GI50 (HCC 2998): 2.84 µM (inactive)
GI50 (MOLT-4): 1.43 µM (inactive)
GI50 (M14): 4.7 µM (inactive)
GI50 (COLO 205): 1.83 µM (inactive)
GI50 (Malme-3M): 2.24 µM (inactive)
GI50 (SNB-75): 2.83 µM (inactive)
GI50 (ACHN): 6.22 µM (inactive)
GI50 (UACC-257): 2.43 µM (inactive)
GI50 (U-251): 2 µM (inactive)
GI50 (A498): 6.17 µM (inactive)
GI50 (OVCAR-8): 3.15 µM (inactive)

COc1cc(Nc2cnc3cc(C(F)(F)F)ccc3n2)cc(OC)c1OC
GI50 (A549): > 100 µM (inactive)
GI50 (HL-60): > 100 µM (inactive)
GI50 (HCT-15): > 100 µM
GI50 (SNB-19): > 100 µM (inactive)
GI50 (HCC 2998): > 100 µM (inactive)
GI50 (MOLT-4): > 100 µM (inactive)
GI50 (COLO 205): > 100 µM (inactive)
GI50 (SR): > 100 µM (inactive)
GI50 (Malme-3M): > 100 µM (inactive)
GI50 (SNB-75): > 100 µM (inactive)
GI50 (ACHN): > 100 µM (inactive)
GI50 (UACC-257): > 100 µM (inactive)
GI50 (U-251): > 100 µM (inactive)
GI50 (OVCAR-8): > 100 µM (inactive)

O=C(Nc1ccccc1C(=O)NC(=O)c1ccccc1NC(=O)c1ccccc1)c1ccccc1
GI50 (A549): 7.53 µM (inactive)
GI50 (OVCAR-4): 3.41 µM (inactive)
GI50 (HCT-15): 16.9 µM
GI50 (SNB-19): 7.36 µM (inactive)
GI50 (COLO 205): 1.46 µM (inactive)
GI50 (SR): 2.42 µM (inactive)
GI50 (Malme-3M): 3.34 µM (inactive)
GI50 (SNB-75): 2.83 µM (inactive)
GI50 (ACHN): 17.9 µM (inactive)
GI50 (UACC-257): 1.86 µM (inactive)
GI50 (U-251): 3.49 µM (inactive)
GI50 (A498): 15.1 µM (inactive)
GI50 (OVCAR-8): 5.04 µM (inactive)

COc1ccccc1NC(=O)NS(=O)(=O)c1ccccc1
GI50 (NCI-H522): 63.7 µM (inactive)
GI50 (A549): > 100 µM (inactive)
GI50 (HL-60): > 100 µM (inactive)
GI50 (OVCAR-4): > 100 µM (inactive)
GI50 (SNB-19): > 100 µM (inactive)
GI50 (HCC 2998): > 100 µM (inactive)
GI50 (M14): > 100 µM (inactive)
GI50 (COLO 205): > 100 µM (inactive)
GI50 (Malme-3M): > 100 µM (inactive)
GI50 (SNB-75): > 100 µM (inactive)
GI50 (ACHN): 58.3 µM (inactive)
GI50 (UACC-257): > 100 µM (inactive)
GI50 (U-251): > 100 µM (inactive)
GI50 (OVCAR-8): > 100 µM (inactive)

CC(C)N(C(=O)C12C3C4C1C1C2C3C41C(=O)C(C)(C)C)C(C)C (centres undefined)
GI50 (NCI-H522): 14 µM (inactive)
GI50 (A549): > 100 µM (inactive)
GI50 (HL-60): 18.1 µM (inactive)
GI50 (OVCAR-4): > 100 µM (inactive)
GI50 (SNB-19): > 100 µM (inactive)
GI50 (HCC 2998): > 100 µM (inactive)
GI50 (MOLT-4): 26.7 µM (inactive)
GI50 (M14): > 100 µM (inactive)
GI50 (COLO 205): > 100 µM (inactive)
GI50 (Malme-3M): > 100 µM (inactive)
GI50 (SNB-75): > 100 µM (inactive)
GI50 (ACHN): > 100 µM (inactive)
GI50 (UACC-257): 95.3 µM (inactive)
GI50 (U-251): > 100 µM (inactive)
GI50 (A498): > 100 µM (inactive)
GI50 (OVCAR-8): > 100 µM (inactive)

O=[N+]([O-])c1ccc(N=P(c2ccccc2)(c2ccccc2)c2ccccc2)n2nnnc12
GI50 (NCI-H522): 31 µM (inactive)
GI50 (A549): 40.6 µM (inactive)
GI50 (HL-60): 36.1 µM (inactive)
GI50 (OVCAR-4): 31.8 µM (inactive)
GI50 (HCT-15): > 100 µM
GI50 (SNB-19): 33.4 µM (inactive)
GI50 (MOLT-4): 77.8 µM (inactive)
GI50 (M14): > 100 µM (inactive)
GI50 (COLO 205): 82 µM (inactive)
GI50 (Malme-3M): 50.8 µM (inactive)
GI50 (SNB-75): 21.9 µM (inactive)
GI50 (ACHN): 43.5 µM (inactive)
GI50 (UACC-257): 85.9 µM (inactive)
GI50 (U-251): 54.8 µM (inactive)
GI50 (A498): > 100 µM (inactive)
GI50 (OVCAR-8): 31 µM (inactive)

CCCCOC(=O)NC(=O)c1cn(CCCOC(=O)CCCCCCCCC(=O)OCCCn2cc(C(=O)NC(=O)OCCCC)c(=O)[nH]c2=O)c(=O)[nH]c1=O
GI50 (A549): > 100 µM (inactive)
GI50 (HL-60): > 100 µM (inactive)
GI50 (OVCAR-4): > 100 µM (inactive)
GI50 (HCT-15): > 100 µM
GI50 (SNB-19): > 100 µM (inactive)
GI50 (HCC 2998): > 100 µM (inactive)
GI50 (MOLT-4): > 100 µM (inactive)
GI50 (M14): > 100 µM (inactive)
GI50 (COLO 205): > 100 µM (inactive)
GI50 (SR): > 100 µM (inactive)
GI50 (Malme-3M): > 100 µM (inactive)
GI50 (ACHN): > 100 µM (inactive)
GI50 (UACC-257): > 100 µM (inactive)
GI50 (U-251): > 100 µM (inactive)
GI50 (OVCAR-8): > 100 µM (inactive)

O=C1C2C3C=C4c5ccccc5N(c5ccccc5)C4([C@@H]2C(=O)N1c1ccc(F)cc1)[C@H]1C(=O)N(c2ccc(F)cc2)C(=O)[C@@H]31 (some centres undefined)
GI50 (NCI-H522): > 100 µM (inactive)
GI50 (A549): > 100 µM (inactive)
GI50 (HL-60): > 100 µM (inactive)
GI50 (HCT-15): > 100 µM
GI50 (SNB-19): > 100 µM (inactive)
GI50 (HCC 2998): > 100 µM (inactive)
GI50 (MOLT-4): > 100 µM (inactive)
GI50 (M14): > 100 µM (inactive)
GI50 (COLO 205): > 100 µM (inactive)
GI50 (SR): > 100 µM (inactive)
GI50 (Malme-3M): > 100 µM (inactive)
GI50 (SNB-75): > 100 µM (inactive)
GI50 (ACHN): > 100 µM (inactive)
GI50 (UACC-257): > 100 µM (inactive)
GI50 (U-251): > 100 µM (inactive)
GI50 (OVCAR-8): > 100 µM (inactive)

C=C1CC2OC(=O)C(=C)C2C(O)C2C(=C)CCC12 (centres undefined)
GI50 (A549): 14.4 µM (inactive)
GI50 (HL-60): 1.89 µM (inactive)
GI50 (SNB-19): 16.2 µM (inactive)
GI50 (HCC 2998): 10.2 µM (inactive)
GI50 (MOLT-4): 2.75 µM (inactive)
GI50 (COLO 205): 3.78 µM (inactive)
GI50 (SR): 3.21 µM (inactive)
GI50 (Malme-3M): 15 µM (inactive)
GI50 (SNB-75): 9.86 µM (inactive)
GI50 (ACHN): 9.04 µM (inactive)
GI50 (UACC-257): 4.2 µM (inactive)
GI50 (U-251): 16.8 µM (inactive)
GI50 (A498): 0.31 µM (active)
GI50 (OVCAR-8): 4.1 µM (inactive)
